Earlier results, collected in patent US20150315247A1, “High-affinity peptide-based anticancer vaccination to overcome tumor resistance to immunostimulatory antibodies and to identify TCRs that can be used successfully in adoptive T cell therapy” (priority 2014, published 2015).

Molecular target: T1, H-2K^b (mouse MHC) (Mus musculus, UniProt P01901)
T1 sequence (P01901 22-369): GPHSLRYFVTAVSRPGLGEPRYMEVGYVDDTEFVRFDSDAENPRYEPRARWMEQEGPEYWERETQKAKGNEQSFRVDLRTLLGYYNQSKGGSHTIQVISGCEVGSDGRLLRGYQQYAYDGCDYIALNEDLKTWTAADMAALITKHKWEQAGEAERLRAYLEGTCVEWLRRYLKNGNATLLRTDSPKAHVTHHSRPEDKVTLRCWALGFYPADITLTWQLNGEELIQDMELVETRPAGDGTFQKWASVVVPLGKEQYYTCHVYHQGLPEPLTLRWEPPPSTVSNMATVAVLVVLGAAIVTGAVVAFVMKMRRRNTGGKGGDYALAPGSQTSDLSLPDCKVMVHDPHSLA
T1 sequence (P01887 21-119 partner): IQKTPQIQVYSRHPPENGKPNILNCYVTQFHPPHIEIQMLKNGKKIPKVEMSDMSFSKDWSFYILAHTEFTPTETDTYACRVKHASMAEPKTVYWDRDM
Conditions: SIINFEKL peptide binding to H-2K^b; read-out: peptide-H-2K^b affinity IC50

Sequence: SIINFEKL [SIINFEKL peptide]
- IC50: 0.9 nM
